Results as given in patent US20230302140A1, “CONJUGATE OF A SINGLE DOMAIN ANTIBODY, A SAPONIN AND AN EFFECTOR MOLECULE, PHARMACEUTICAL COMPOSITION COMPRISING THE SAME, THERAPEUTIC USE OF SAID PHARMACEUTICAL COMPOSITION” (SAPREME TECHNOLOGIES B.V., priority 2020, published 2023).

Experiments:
[1] = tested on: endosomal acidification; assay: Cell viability assay with endosomal acidification inhibitors; assay type: cell-based; settings: targeted 2-component system; chloroquine or bafilomycin A1
Procedure: (§1) Cells were seeded in a 96 well plate at 5.000-1 0.000 c/w in 100 µL/well and incubated overnight at 37° C. […] The media was removed from the cell culture plate and replaced by 180 µL culture media, followed by the addition of 20 µL treatment-mix/well. […] In the case that endosomal acidification inhibitors (chloroquine (Sigma Aldrich) or bafilomycin A1 (Enzo Life Sciences)) were used, the cell culture media in step 1 of treatment was replaced by 180 µL media containing 1 µM chloroquine or 0.2 µM bafilomycin A1. The plate was incubated for 1 hour at 37° C., before the 10x treatment-mix samples were added. The remaining incubation and treatment steps were performed according to standard procedures known in the field.

[2] = tested on: CaSki cells; assay: Cell killing (MTS cell viability) assay; assay type: cell-based, human
Procedure: as §1
(§2) After treatment the cells were incubated for 72 hr at 37° C. before the cell viability was determined by a MTS-assay, performed according to the manufacturer’s instruction (CellTiter 96® AQueous One Solution Cell Proliferation Assay, Promega). Briefly, the MTS solution was diluted 20x in DMEM without phenol red (PAN-Biotech GmbH) supplemented with 10% FBS (PAN-Biotech GmbH). The cells were washed once with 200 µL PBS per well, after which 100 µL diluted MTS solution was added per well. The plate was incubated for approximately 20-30 minutes at 37° C. Subsequently, the optical density at 492 nm was measured on a Thermo Scientific Multiskan FC plate reader (Thermo Scientific). For quantification the background signal of ‘medium only’ wells was subtracted from all other wells, before the ratio of […].

[3] = tested on: A2058 cells; assay: Cell killing (MTS cell viability) assay; assay type: cell-based, human
Procedure: (§3) After treatment the cells were incubated for 72 hr at 37° C. before the cell viability was determined by a MTS-assay, performed according to the manufacturer’s instruction (CellTiter 96® AQueous One Solution Cell Proliferation Assay, Promega). Briefly, the MTS solution was diluted 20× in DMEM without phenol red (PAN-Biotech GmbH) supplemented with 10% FBS. The cells were washed once with 200 µL/PBS well, after which 100 µL diluted MTS solution was added/well. The plate was incubated for approximately 20-30 minutes at 37° C. Subsequently, the OD at 492 nm was measured on a Thermo Scientific Multiskan FC plate reader (Thermo Scientific). For quantification the background signal of ‘medium only’ wells was subtracted from all other wells, before the cell viability percentage of treated/untreated cells was calculated, by dividing the background corrected signal of treated wells over the background corrected signal of the untreated wells (x 100).
as §1, §2

[4] = tested on: MDA-MB-468 cells; assay: Cell killing (MTS cell viability) assay; assay type: cell-based, human
Procedure: as §3, §1, §2

[5] = tested on: SK-BR-3 cells; assay: Cell killing (MTS cell viability) assay; assay type: cell-based, human
Procedure: as §3, §1, §2

[6] = tested on: HeLa cells; assay: Cell killing (MTS cell viability) assay; assay type: cell-based, human; settings: +1500 nM SO1861 (unconjugated)
Procedure: as §1, §2

[7] = tested on: JIMT-1 cells; assay: Cell killing (MTS cell viability) assay; assay type: cell-based, human; settings: +1500 nM SO1861 (unconjugated)
Procedure: as §1, §2

[8] = target: human EGFR (human) (UniProt P00533); assay: cell-based or functional assay
[9] = +50 pM VHH-EGFR-dianthin (fixed)
[10] = +50 pM CD71VHH-dianthin (fixed)
[11] = +50 pM VHH-HER2-dianthin (fixed)

CC(=O)O[C@H]1[C@H](O[C@@H]2OC[C@@H](O)[C@H](O)[C@H]2O)[C@@H](O)[C@H](O[C@@H]2[C@H](O)[C@@H](O[C@@H]3O[C@@H](C)[C@H](O[C@@H]4OC[C@@H](O)[C@H](O[C@@H]5O[C@H](CO)[C@@H](O)[C@H](O)[C@H]5O)[C@H]4O)[C@@H](O)[C@H]3O)[C@H](OC(=O)[C@]34CCC(C)(C)C[C@H]3C3=CC[C@@H]5[C@@]6(C)CC[C@H](O[C@@H]7O[C@H](C(=O)O)[C@@H](O)[C@H](O[C@@H]8OC[C@@H](O)[C@H](O)[C@H]8O)[C@H]7O[C@@H]7O[C@H](CO)[C@H](O)[C@H](O)[C@H]7O)[C@@](C)(C=O)[C@@H]6CC[C@@]5(C)[C@]3(C)C[C@H]4O)O[C@@H]2C)O[C@@H]1C [SO1861]
SO1861 function with endosomal acidification inhibitors [1]: function is reduced when acidification of endosomes is blocked
IC50 ([2]; +10 pM cetuximab-saporin (fixed), calculated on concentration SO1861): 700 nM
IC50 ([2]; +50 pM trastuzumab-saporin (fixed), Ex.9/Table A6: calculated on concentration SO1861): ≥ 1000 nM
IC50 ([3]; +50 pM VHH-CD71-dianthin (fixed)): 200 nM
IC50 cell killing [3, 9]: no activity
IC50 [4, 10]: 200 nM
IC50 [4, 9]: 300 nM
IC50 cell killing [4, 11]: no enhanced activity compared to SO1861alone
IC50 ([5]; +1.5 pM EGF-dianthin (fixed), Ex.9/Table A6: calculated on concentration SO1861): 800 nM
IC50 ([5]; +10 pM EGF-dianthin (fixed), Table A6: calculated on concentration SO1861): 650 nM
IC50 [5, 10]: 200 nM
IC50 [5, 9]: 700 nM
IC50 [5, 11]: 200 nM

Saporin
IC50 ([2]; +1500 nM SO1861 (unconjugated)): 0.015 nM
IC50 [6]: 0.03 nM
IC50 [7]: 0.03 nM

cetuximab-saporin (monoclonal antibody recognizing and binding EGFR, conjugated to the protein toxin, saporin)
cell killing (MTS) on MDA-MB-468 cells (EGFR++), cetuximab-saporin alone, IC50 [8]: 0.3 nM
